assay: gradient 5% acetonitrile 3 min, to 50% in 2 min, to 85% in 15 min, held 3 min, 100 µL/min; conditions: column: Zorbax Extend-C18 2.1 x 50 mm; eluents: water / acetonitrile, 0.1% formic acid
How it was run: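 Mixtures of ~100 pure standards were chromatographed on a Zorbax Extend-C18 column (2.1 × 50 mm, 1.8 μm) at 100 μL/min using water and acetonitrile, each with 0.1% formic acid. Detection used a quadrupole time-of-flight mass spectrometer in positive and negative ionization mode, and data collection spanned 3 months. Retention time was obtained from adduct peaks picked computationally and each checked manually.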

Q: Which RP-LC retention time does the source give for `COc1ccccc1C(=O)N1CCC(n2cnnc2-c2ccccc2)C1` (stereo unspecified) here?
A: 643 s

Q: With `COc1cc(-c2noc(CN3C(=O)COc4cc(C)ccc43)n2)cc(OC)c1OC` as the molecule, how does the RP-LC retention time read?
A: 974 s

Q: With `CCn1c(N2CCN(C(=O)Nc3cc(OC)c(OC)c(OC)c3)CC2)nc2ccccc21` as the molecule, how does the RP-LC retention time read?
A: 623 s

Q: For `Cc1cc(NC(=O)CSc2nnnn2C)sn1`, which RP-LC retention time is on record?
A: 596 s

Q: For `CCOC(=O)c1cnn2c(C(F)(F)F)cc(-c3ccc(F)cc3)nc12`, which RP-LC retention time is on record?
A: 1110 s

Q: For `CC1CCCN(C(=O)c2cc3c(s2)CCN(C(=O)c2ccccc2)C3)C1` (stereo unspecified), which RP-LC retention time is on record?
A: 589 s

Q: With `CN1C(=O)c2ccccc2Sc2ccc(NC(=O)N3CCC(C(N)=O)CC3)cc21` as the molecule, how does the RP-LC retention time read?
A: 1430 s

Q: For `CCOc1ccc(CNC(=O)C2=Cc3cc(OC)ccc3OC2)cc1OC`, which RP-LC retention time is on record?
A: 861 s

Q: Which RP-LC retention time does the source give for `Cc1cc(Cl)ccc1NS(=O)(=O)c1cc(-c2[nH]ncc2C(=O)N(C)C)oc1C` here?
A: 730 s

Q: Which RP-LC retention time does the source give for `CCCN1C(=O)NC2(CCN(C(=O)Nc3ccccc3C(F)(F)F)CC2)C1=O` here?
A: 705 s

Q: With `COc1ccc(CC(=O)N2CCN(c3nc4ccncc4n(C)c3=O)CC2)c(Cl)c1` as the molecule, how does the RP-LC retention time read?
A: 645 s

Q: For `Cc1ccc(Sc2ccc(N3CCCC(C(=O)NCc4ccccc4)C3)nn2)cc1` (stereo unspecified), which RP-LC retention time is on record?
A: 905 s

Q: With `Cc1nnsc1C(=O)Nc1nnc(SCc2ccc(Cl)c(Cl)c2)s1` as the molecule, how does the RP-LC retention time read?
A: 1020 s

Q: Which RP-LC retention time does the source give for `CC(=O)NCc1csc(C2CCCN(C(=O)c3cccn3C)C2)n1` (stereo unspecified) here?
A: 612 s

Q: Which RP-LC retention time does the source give for `C=CCN1C(=O)COc2ccc(-c3csc(NC(C)=O)n3)cc21` here?
A: 762 s

Q: Which RP-LC retention time does the source give for `CN(C)CCNC(=O)c1ccc(Nc2c(-c3ccccc3)nc3cnccn23)cc1` here?
A: 586 s

Q: For `CCc1ccc(-c2noc(CN3C(=O)C(C)Oc4ccccc43)n2)cc1` (stereo unspecified), which RP-LC retention time is on record?
A: 1160 s

Q: For `Cc1cc(N2CCC(C)CC2)n2nc(CN3CCN(C(C)C)CC3)nc2n1`, which RP-LC retention time is on record?
A: 590 s

Q: For `O=c1cccnn1CCNS(=O)(=O)c1ccc(OC(F)(F)F)cc1`, which RP-LC retention time is on record?
A: 711 s

Q: With `Cc1nc(-c2cnccn2)n(CC(=O)Nc2ccccc2)c(=O)c1C` as the molecule, how does the RP-LC retention time read?
A: 704 s

Q: For `O=C(CSc1ncc(-c2cccc(Cl)c2)o1)Nc1ccccc1C(F)(F)F`, which RP-LC retention time is on record?
A: 1070 s

Q: For `O=C(Cn1ccc2ccn(Cc3ccccc3F)c2c1=O)NCc1ccc2c(c1)OCO2`, which RP-LC retention time is on record?
A: 894 s

Q: For `COc1cccc2sc(N(C)CC(=O)NCCc3cccs3)nc12`, which RP-LC retention time is on record?
A: 772 s

Q: Which RP-LC retention time does the source give for `CCOC(=O)c1ccc(S(=O)(=O)NCCCn2nc(-c3ccncc3)ccc2=O)cc1` here?
A: 592 s

Q: With `CCCNC(=O)C1CCCN(c2nc3ncn(CC(=O)Nc4ccccc4F)c(=O)c3s2)C1` (stereo unspecified) as the molecule, how does the RP-LC retention time read?
A: 679 s

Q: For `Cc1cc(C)cc(NC(=O)Nc2ccc3nncn3c2)c1`, which RP-LC retention time is on record?
A: 738 s

Q: For `O=C1NC2(CCN(C(=O)c3ccccc3)CC2)N=C1c1ccc(Br)cc1`, which RP-LC retention time is on record?
A: 861 s

Q: With `Cc1c(C#N)c2ccccc2n1CC(=O)NCc1ccc2c(c1)OCCCO2` as the molecule, how does the RP-LC retention time read?
A: 856 s

Q: For `COc1ccc(-c2cc(C(=O)NCC(c3ccc(C)o3)N(C)C)no2)cc1` (stereo unspecified), which RP-LC retention time is on record?
A: 684 s

Q: For `CCOc1ccc(NC(=O)N2CCN(c3cnn4c(C)nnc4c3)CC2)cc1`, which RP-LC retention time is on record?
A: 648 s

Q: Which RP-LC retention time does the source give for `CC(C)c1ccc(NC(=O)Cn2cnc3c2c(=O)n(C)c(=O)n3C)cc1` here?
A: 816 s

Q: For `Cc1nn(-c2ccccc2)c(C)c1S(=O)(=O)N1CCC(C(=O)NCc2ccc(Cl)cc2)CC1`, which RP-LC retention time is on record?
A: 966 s

Q: With `CCOC(=O)c1cn(-c2c(F)c(F)c(C#N)c(F)c2F)c2c(F)c(F)c(F)cc2c1=O` as the molecule, how does the RP-LC retention time read?
A: 981 s

Q: With `Clc1ccc(OCc2nc(-c3ccc4c(c3)ncn4CCN3CCCC3)no2)cc1` as the molecule, how does the RP-LC retention time read?
A: 690 s

Q: Which RP-LC retention time does the source give for `COc1cccc(-c2noc(Cn3c(=O)n(-c4ccccc4C)c(=O)c4sccc43)n2)c1` here?
A: 978 s

Q: With `CCc1ccc(N2C(=O)CN(S(C)(=O)=O)CC2(C)C(=O)NCc2ccc(F)cc2)cc1` (stereo unspecified) as the molecule, how does the RP-LC retention time read?
A: 834 s
